Data on 2 molecules can be found in US20230093099A1, “COMPOUNDS AND METHODS OF TREATING CANCERS” (CULLGEN (SHANGHAI), INC., priority 2019, published 2023).

As a reminder, the IC50 is the concentration that gives 50% inhibition.

The target in one data set is T1, GSPT1 (Homo sapiens, UniProt P15170).
T1 construct: immunoblot of GSPT1 and tubulin expressed in RS4:11 cells; endogenous in cells; host or cells: RS4;11 cells
The data set is described as follows: Immunoblot of GSPT1 protein level in RS4;11 cells. To be noted: 16 hours; for GSPT1 protein level: immunoblot (FIG. 5). Format: cell-based. How it is done: RS4;11 cells were treated with compounds at indicated concentrations for 16 hours. […] The concentrations required to reduce GSPT1 by 50% (DC50) were below 2 nM for compound JA-189 and 10 nM JA213.
(§1) HEL, RS4;11, MV4;11, Kasumi-1 and other cells were cultured at 37° C. with 5% CO2 in RPMI 1640 or DMEM Medium supplemented with 10% fetal bovine serum. Cells were authenticated using the short tandem repeat (STR) assays. Mycoplasma test results were negative.
(§2) Rabbit anti-JAK1 antibody (3344S), anti-JAK2 antibody (3230S), anti-JAK3 antibody (8827S), anti-TYK2 antibody (14193S), anti-FLT3 antibody (3462S), anti-RET antibody (14556S), anti-phospho-STAT3 (Tyr705) antibody (9145S) and anti-phospho-STAT5 (Tyr694) antibody (4322S) were purchased from Cell Signaling Technology. Rabbit anti-GSPT1 antibody (ab126090) was purchased from Abcam. HRP-conjugated anti-α-tubulin antibody was produced in house. Media and other cell culture reagents were purchased from Thermo Fisher. The CellTiter-Glo Luminescent Assay kit was purchased from Promega.
(§3) Cultured cells were washed with cold PBS once and lysed in cold RIPA buffer supplemented with protease inhibitors and phosphatase inhibitors (Beyotime Biotechnology). The solutions were then incubated at 4° C. for 30 minutes with gentle agitation to fully lyse cells. Cell lysates were centrifuged at 13,000 rpm for 10 minutes at 4° C. and pellets were discarded. Total protein concentrations in the lysates were determined by BCA assays (Beyotime Biotechnology). Cell lysates were mixed with Laemmli loading buffer to 1× and heated at 99° C. for 5 min. Proteins were resolved on SDS-PAGE and visualized by chemiluminescence. Images were taken by a ChemiDoc MP Imaging system (Bio-Rad). Protein bands were quantitated using the accompanied software provided by Bio-Rad.
Background: In western blotting, separated proteins are transferred to a membrane and probed.

In the next data set the test system is MOLT-4 cells. The data set is described as follows: Cell viability assay (CellTiter-Glo) in MOLT-4 cells. Format: cell-based. The note with it: Homo sapiens, 72 h, MOLT-4, T-ALL, 3 days. How it is done:
(§4) MV4;11, RS4;11, Kasumi-1, HEL and other cells were treated with NVP-BSK805, TG101209 or selected degraders for 3 days at indicated concentrations following a 3-fold serial dilution.
as §1
(§5) Cells were seeded at a density of 5000 cells per well in 96-well assay plates and treated with test compounds following a 8-point or 12-point 3-fold serial dilution. Three days later, cell viability was determined using the CellTiter-Glo assay kit according to the manufacturer's instructions. The dose-response curves were determined and IC50 values were calculated using the GraphPad Prism software following a nonlinear regression (least squares fit) method.

The subject of the next data set is Jurkat cells. The experiment in a line: Cell viability assay (CellTiter-Glo) in Jurkat cells. The note with it: Homo sapiens, 72 h, T-ALL, 3 days. It counts as cell-based. How it is done:
as §4, §1, §5
(In ATP-based viability assays light output follows the ATP content of the culture.)

The subject of a further data set is p-STAT3. The experiment in a line: Immunoblot of p-STAT3 (downstream signaling) in HEL cells. It counts as cell-based. To be noted: immunoblot (FIG. 1). As to the method:
To confirm JA-189 and JA-213 are true JAK degraders, HEL cell were treated with these two compounds at various compounds concentrations.
as §1, §2
Cultured cells were washed with cold PBS once and lysed in cold RIPA buffer supplemented with protease inhibitors and phosphatase inhibitors (Beyotime Biotechnology). […] Total protein concentrations in the lysates were determined by BCA assays (Beyotime Biotechnology). […] Protein bands were quantitated using the accompanied software provided by Bio-Rad.

Another data set has as its system MEG-01 cells. The experiment in a line: Cell viability assay (CellTiter-Glo) in MEG-01 cells. It counts as cell-based. To be noted: Homo sapiens, 72 h, MEG-01, CML, 3 days. How it is done: as §4, §1, §5
Another data set deals with WSU-DLCL2 cells. The experiment in a line: Cell viability assay (CellTiter-Glo) in WSU-DLCL2 cells. Format: cell-based. The note with it: Homo sapiens, WSUDLCL2, 72 h, WSU-DLCL2, DLBCL, 3 days. As to the method:
as §4, §1, §5

The subject of a further data set is Kasumi-1 cells. The data set is described as follows: Cell viability assay (CellTiter-Glo) in Kasumi-1 cells. It counts as cell-based. The note with it: for IC50: Homo sapiens, 72 h, Kasumi-1, AML, cell viability, 3 days; for cell viability inhibition in combination with pomalidomide: Kasumi-1, 3 days, pomalidomide at 10 μM (FIG. 4). How it is done: as §4, §1, §5

The subject of another data set is keratinocyte HACAT cells. The data set is described as follows: Cell viability of non-cancerous keratinocyte HACAT cells. Format: cell-based, human. To be noted: 3 days, 3-fold serial dilution (FIG. 6). As to the method: Immortalized human lung fibroblast IMR-90 and keratinocyte HACAT cells were treated with JA-189 or JA-213 for 3 days at indicated concentrations following a 3-fold serial dilution.
as §5

In the next data set the target is T2, JAK2-V617F (Homo sapiens, UniProt O60674, V617F).
T2 construct: immunoblot of JAK1/2/3 proteins expressed in HEL cells; endogenous in cells; host or cells: HEL cells
The data set is described as follows: Immunoblot of JAK2 protein level in HEL cells. Format: cell-based. To be noted: 24 hours; for JAK2 protein level: HEL cells, immunoblot (FIG. 1). As to the method: HEL cells harboring JAK2-V617F mutation were treated with compounds at indicated concentrations for 24 hours. […] The concentrations required to reduce JAK2-V617 by 50% (DC50) were below 60 nM for compound JA-213.
as §1, §2, §3

In a further data set the test system is HL-60 cells. The experiment in a line: Cell viability assay (CellTiter-Glo) in HL-60 cells. Format: cell-based. To be noted: Homo sapiens, 72 h, HL-60, APL, 3 days. How it is done: as §4, §1, §5
Another data set has as its system SU-DHL-1 cells. The data set is described as follows: Cell viability assay (CellTiter-Glo) in SU-DHL-1 cells. Format: cell-based. The note with it: Homo sapiens, 72 h, SU-DHL-1, large cell lymphoma, 3 days. As to the method:
as §4, §1, §5

T2 sequence (O60674 whole entry V617F): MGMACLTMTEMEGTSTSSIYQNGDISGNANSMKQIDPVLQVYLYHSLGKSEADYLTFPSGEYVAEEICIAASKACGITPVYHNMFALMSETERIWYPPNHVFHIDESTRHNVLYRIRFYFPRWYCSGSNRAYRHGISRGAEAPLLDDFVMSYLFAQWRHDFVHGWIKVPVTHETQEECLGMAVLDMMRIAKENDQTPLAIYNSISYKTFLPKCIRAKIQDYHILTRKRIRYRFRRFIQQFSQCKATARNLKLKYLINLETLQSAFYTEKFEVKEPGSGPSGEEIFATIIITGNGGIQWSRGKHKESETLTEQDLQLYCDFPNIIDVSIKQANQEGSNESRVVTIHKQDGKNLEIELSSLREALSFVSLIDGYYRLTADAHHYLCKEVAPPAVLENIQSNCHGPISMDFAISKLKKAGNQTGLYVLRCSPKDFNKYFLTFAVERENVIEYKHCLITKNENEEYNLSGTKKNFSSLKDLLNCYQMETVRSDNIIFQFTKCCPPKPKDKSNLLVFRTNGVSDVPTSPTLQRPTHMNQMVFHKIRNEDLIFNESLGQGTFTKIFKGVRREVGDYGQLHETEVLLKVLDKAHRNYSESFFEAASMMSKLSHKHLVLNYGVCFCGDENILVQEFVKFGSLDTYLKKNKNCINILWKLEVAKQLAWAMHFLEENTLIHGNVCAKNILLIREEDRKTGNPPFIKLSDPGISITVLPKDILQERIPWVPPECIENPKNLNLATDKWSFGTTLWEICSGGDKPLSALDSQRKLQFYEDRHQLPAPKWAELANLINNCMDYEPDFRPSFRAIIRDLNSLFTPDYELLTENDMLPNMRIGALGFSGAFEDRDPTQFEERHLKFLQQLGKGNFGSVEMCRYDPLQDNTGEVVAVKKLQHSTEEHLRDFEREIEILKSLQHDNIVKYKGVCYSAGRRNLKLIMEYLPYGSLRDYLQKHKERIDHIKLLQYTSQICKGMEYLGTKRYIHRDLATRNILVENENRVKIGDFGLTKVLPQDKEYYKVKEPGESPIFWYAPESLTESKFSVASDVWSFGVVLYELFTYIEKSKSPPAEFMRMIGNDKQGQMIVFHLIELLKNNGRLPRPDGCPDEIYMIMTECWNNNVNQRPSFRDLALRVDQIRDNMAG
T1 sequence (P15170 whole entry): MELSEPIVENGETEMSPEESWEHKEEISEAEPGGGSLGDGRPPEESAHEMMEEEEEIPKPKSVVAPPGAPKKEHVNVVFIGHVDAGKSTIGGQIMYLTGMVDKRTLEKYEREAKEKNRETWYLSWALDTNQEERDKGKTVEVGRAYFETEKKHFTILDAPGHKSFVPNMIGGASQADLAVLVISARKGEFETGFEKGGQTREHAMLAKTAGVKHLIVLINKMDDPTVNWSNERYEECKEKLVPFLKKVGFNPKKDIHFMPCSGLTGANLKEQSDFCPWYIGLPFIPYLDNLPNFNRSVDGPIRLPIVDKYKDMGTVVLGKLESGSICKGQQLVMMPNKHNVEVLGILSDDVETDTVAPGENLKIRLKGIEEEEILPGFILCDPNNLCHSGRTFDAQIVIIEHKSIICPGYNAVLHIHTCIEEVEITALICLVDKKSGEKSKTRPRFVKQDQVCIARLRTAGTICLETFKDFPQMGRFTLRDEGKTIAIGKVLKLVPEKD

`O=C1CCC(N2C(=O)c3ccc(NCCCCCC(=O)N4CCC(n5cc(-c6cnc7cccc(-c8cc(F)c(CN9CCOCC9)c(F)c8)c7n6)cn5)CC4)cc3C2=O)C(=O)N1` (centres unmarked) [JA-189, 5-((6-(4-(4-(8-(3,5-difluoro-4-(morpholinomethyl)phenyl)quinoxalin-2-yl)-1H-pyrazol-1-yl)piperidin-1-yl)-6-oxohexyl)amino)-2-(2,6-dioxopiperidin-3-yl)isoindoline-1,3-dione]: on GSPT1, the GSPT1 protein level result is listed as “induced degradation of GSPT1 in a dose dependent manner”. In addition, on GSPT1 (immunoblot, read-out: concentration required to reduce GSPT1 by 50% (DC50)), the DC50 was less than 2 nM. Further, the IC50 with MOLT-4 cells was found to be 6.36 nM; in the data set with Jurkat cells, 34.2 nM; in the data set on MEG-01 cells it was 89.2 nM; with WSU-DLCL2 cells, 106 nM; with Kasumi-1 cells it was 86.3 nM; with HL-60 cells, 2.54 nM. The same molecule returned an IC50 in the data set on SU-DHL-1 cells of 222 nM. In addition, the “down stream signaling, p-STAT3 band” value in the data set on p-STAT3 is “weaker bands of p-STAT3 and p-STAT5”. Also, the “cell viability inhibition in combination with pomalidomide” value in the data set with Kasumi-1 cells is “greatly reduce the potencies of the degraders”. The “sensitivity of non-cancerous cells (cell viability)” value in the data set on keratinocyte HACAT cells is reported as “not sensitive”. Besides, on JAK2-V617F, the JAK2 protein level result was “able to reduce JAK1, JAK2 and JAK3 protein levels”.
Turning to `CS(=O)(=O)c1ccc(-c2cccc3nc(Nc4ccc(N5CCN(CC(=O)NCCCCCCCCNc6ccc7c(c6)C(=O)N(C6CCC(=O)NC6=O)C7=O)CC5)cc4)nn23)cc1` (centres unmarked) [JA-213], the GSPT1 protein level result at GSPT1 is given as “induced degradation of GSPT1 in a dose dependent manner”. The IC50 in the data set with MOLT-4 cells amounted to 16.5 nM; with Jurkat cells it was 62.7 nM; in the data set with MEG-01 cells it was 74 nM; in the data set on WSU-DLCL2 cells it was 168 nM; with Kasumi-1 cells, 69.1 nM; in the data set on HL-60 cells, 19.2 nM. The same molecule gave an IC50 with SU-DHL-1 cells of 319 nM. In the data set on p-STAT3, the “down stream signaling, p-STAT3 band” value is “weaker bands of p-STAT3 and p-STAT5”. In the data set with Kasumi-1 cells, the “cell viability inhibition in combination with pomalidomide” value is “greatly reduce the potencies of the degraders”. For the same molecule, in the data set on keratinocyte HACAT cells, the “sensitivity of non-cancerous cells (cell viability)” value is reported as “not sensitive”. The DC50 on JAK2-V617F (HEL cells harboring JAK2-V617F, immunoblot, read-out: concentration required to reduce JAK2-V617 by 50% (DC50)) is less than 60 nM. The JAK2 protein level entry on JAK2-V617F is “able to reduce JAK1, JAK2 and JAK3 protein levels”.
